molecular target: T1, recombinant human E-selectin/CD63E Fc Chimera (Homo sapiens, UniProt P16581); assay: E-Selectin Activity - Analysis by SPR; type: binding; details: Biacore X100, E-selectin captured on anti-human IgG (Fc) chip
T1 construct: Fc (human IgG Fc fusion partner); purchased R & D systems
Protocol: Surface Plasmon Resonance (SPR) measurements were performed on a Biacore X100 instrument (GE Healthcare). A CM5 sensor chip (GE Healthcare) was used for the interaction between E-selectin and GMI compound. Anti-human IgG (Fc) antibody (GE Healthcare) was immobilized onto the chip by amine coupling according to the manufacturer's instructions. In brief, after a 7-min injection (flow rate of 5 μl/min) of 1:1 mixture of N-ethyl-N′-(3-dimethylaminopropyl) carbodiimide hydrochloride and N-hydroxysuccinimide, anti-human IgG (Fc) antibody (25 μg/ml in 10 mM sodium acetate buffer, pH 5.0) was injected using a 6-min injection at 5 μl/min. Remaining activated groups were blocked by injecting 1 M ethanolamine/HCl, pH 8.5. The recombinant human E-selectin/CD63E Fc Chimera (50 μg/ml) (R & D systems) was injected into the experimental cell until 6000-7000 RU was captured onto the antibody surface. No recombinant human E-selectin/CD63E was injected into the control cell. Increasing concentrations of GMI compound samples were injected at 30 μl/min into both flow cells and all sensorgrams were recorded against the control. Regeneration of the anti-human IgG (Fc) surface was achieved by injecting 3M magnesium chloride, followed by 50 mM sodium hydroxide. Data were analyzed using Biacore X100 evaluation/BIA evaluation 4.1.1 software (GE Healthcare) and Graphad prism 6 software.

T1 sequence (P16581 with tags, fused parts or gaps limits assumed): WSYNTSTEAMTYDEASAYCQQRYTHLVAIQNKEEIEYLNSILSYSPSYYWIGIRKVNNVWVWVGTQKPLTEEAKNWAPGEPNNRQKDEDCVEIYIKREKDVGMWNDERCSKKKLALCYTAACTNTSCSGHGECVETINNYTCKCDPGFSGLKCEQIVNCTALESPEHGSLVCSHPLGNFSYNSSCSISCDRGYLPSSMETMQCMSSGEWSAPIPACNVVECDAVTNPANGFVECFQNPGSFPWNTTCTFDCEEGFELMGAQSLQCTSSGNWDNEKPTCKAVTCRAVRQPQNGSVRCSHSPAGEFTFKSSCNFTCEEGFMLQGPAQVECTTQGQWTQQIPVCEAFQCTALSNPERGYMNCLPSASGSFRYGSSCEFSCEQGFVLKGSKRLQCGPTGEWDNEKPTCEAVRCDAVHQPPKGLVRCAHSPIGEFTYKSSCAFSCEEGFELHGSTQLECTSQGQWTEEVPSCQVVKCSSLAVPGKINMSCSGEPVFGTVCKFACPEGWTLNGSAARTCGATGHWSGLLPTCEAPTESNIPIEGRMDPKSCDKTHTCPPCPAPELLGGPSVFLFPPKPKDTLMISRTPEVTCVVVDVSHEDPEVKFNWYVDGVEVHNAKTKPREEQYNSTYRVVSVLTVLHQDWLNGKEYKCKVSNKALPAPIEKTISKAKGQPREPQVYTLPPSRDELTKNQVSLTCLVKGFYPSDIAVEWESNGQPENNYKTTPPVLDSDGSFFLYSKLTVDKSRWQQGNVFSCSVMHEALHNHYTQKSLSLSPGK

Row | SMILES | Kd [nM]
1 | CC[C@H]1C[C@@H](C(=O)NCCNC(=O)CCOCCOCCOCCOCCOCCOCCOCCOCCOCCOCCC(=O)NCCNC(=O)[C@@H]2C[C@H](CC)[C@@H](O[C@@H]3O[C@@H](C)[C@@H](O)[C@@H](O)[C@@H]3O)[C@H](O[C@@H]3O[C@H](CO)[C@H](O)[C@H](O[C@@H](CC4CCCCC4)C(=O)O)[C@H]3NC(C)=O)C2)C[C@@H](O[C@@H]2O[C@H](CO)[C@H](O)[C@H](O[C@@H](CC3CCCCC3)C(=O)O)[C@H]2NC(C)=O)[C@@H]1O[C@@H]1O[C@@H](C)[C@@H](O)[C@@H](O)[C@@H]1O [Compound 15] | 6
2 | CC[C@H]1C[C@@H](C(=O)OC)C[C@@H](O[C@@H]2O[C@H](CO)[C@H](O)[C@H](O[C@@H](CC3CCCCC3)C(=O)O)[C@H]2NC(C)=O)[C@@H]1O[C@@H]1O[C@@H](C)[C@@H](O)[C@@H](O)[C@@H]1O [Compound 3, reference compound] | 2260
3 | CC[C@H]1C[C@@H](C(=O)NCCNC(=O)CCOCCOCCOCCOCCOCCOCCC(=O)NCCNC(=O)[C@@H]2C[C@H](CC)[C@@H](O[C@@H]3O[C@@H](C)[C@@H](O)[C@@H](O)[C@@H]3O)[C@H](O[C@@H]3O[C@H](CO)[C@H](O)[C@H](O[C@@H](CC4CCCCC4)C(=O)O)[C@H]3NC(C)=O)C2)C[C@@H](O[C@@H]2O[C@H](CO)[C@H](O)[C@H](O[C@@H](CC3CCCCC3)C(=O)O)[C@H]2NC(C)=O)[C@@H]1O[C@@H]1O[C@@H](C)[C@@H](O)[C@@H](O)[C@@H]1O [Compound 16] | 6
4 | CC[C@H]1C[C@@H](C(=O)NCCNC(=O)CCOCCOCCOCCOCCOCCOCCOCCOCCOCCOCCOCCOCCOCCC(=O)NCCNC(=O)[C@@H]2C[C@H](CC)[C@@H](O[C@@H]3O[C@@H](C)[C@@H](O)[C@@H](O)[C@@H]3O)[C@H](O[C@@H]3O[C@H](CO)[C@H](O)[C@H](O[C@@H](CC4CCCCC4)C(=O)O)[C@H]3NC(C)=O)C2)C[C@@H](O[C@@H]2O[C@H](CO)[C@H](O)[C@H](O[C@@H](CC3CCCCC3)C(=O)O)[C@H]2NC(C)=O)[C@@H]1O[C@@H]1O[C@@H](C)[C@@H](O)[C@@H](O)[C@@H]1O [Compound 14] | 6.6
5 | CC[C@H]1CC(C(=O)NCCNC(=O)CCC(=O)NCCNC(=O)[C@@H]2C[C@H](CC)[C@@H](O[C@@H]3O[C@@H](C)[C@@H](O)[C@@H](O)[C@@H]3O)[C@H](O[C@@H]3O[C@H](CO)[C@H](O)[C@H](O[C@@H](CC4CCCCC4)C(=O)O)[C@H]3NC(C)=O)C2)C[C@@H](O[C@@H]2O[C@H](CO)[C@H](O)[C@H](O[C@@H](CC3CCCCC3)C(=O)O)[C@H]2NC(C)=O)[C@@H]1O[C@@H]1O[C@@H](C)[C@@H](O)[C@@H](O)[C@@H]1O (some centres unmarked) [Compound 19] | 10.2
6 | CC[C@H]1C[C@@H](C(=O)NCCNC(=O)CCOCCOCCOCCOCCC(=O)NCCNC(=O)[C@@H]2C[C@H](CC)[C@@H](O[C@@H]3O[C@@H](C)[C@@H](O)[C@@H](O)[C@@H]3O)[C@H](O[C@@H]3O[C@H](CO)[C@H](O)[C@H](O[C@@H](CC4CCCCC4)C(=O)O)[C@H]3NC(C)=O)C2)C[C@@H](O[C@@H]2O[C@H](CO)[C@H](O)[C@H](O[C@@H](CC3CCCCC3)C(=O)O)[C@H]2NC(C)=O)[C@@H]1O[C@@H]1O[C@@H](C)[C@@H](O)[C@@H](O)[C@@H]1O [Compound 17] | 5.1
7 | CC[C@H]1C[C@@H](C(=O)NCCNC(=O)NCCNC(=O)[C@@H]2C[C@H](CC)[C@@H](O[C@@H]3O[C@@H](C)[C@@H](O)[C@@H](O)[C@@H]3O)[C@H](O[C@@H]3O[C@H](CO)[C@H](O)[C@H](O[C@@H](CC4CCCCC4)C(=O)O)[C@H]3NC(C)=O)C2)C[C@@H](O[C@@H]2O[C@H](CO)[C@H](O)[C@H](O[C@@H](CC3CCCCC3)C(=O)O)[C@H]2NC(C)=O)[C@@H]1O[C@@H]1O[C@@H](C)[C@@H](O)[C@@H](O)[C@@H]1O [Compound 32] | 8.8

The next compounds have a lower Kd than those just listed; values first:

Row | Kd [nM] | SMILES
8 | 4.7 | CC[C@H]1C[C@@H](C(=O)NCCNC(=O)CCOCCOCCOCCOCCOCCOCCOCCOCCOCCOCCOCCOCCOCCOCCOCCOCCOCCOCCOCCOCCOCCC(=O)NCCNC(=O)[C@@H]2C[C@H](CC)[C@@H](O[C@@H]3O[C@@H](C)[C@@H](O)[C@@H](O)[C@@H]3O)[C@H](O[C@@H]3O[C@H](CO)[C@H](O)[C@H](O[C@@H](CC4CCCCC4)C(=O)O)[C@H]3NC(C)=O)C2)C[C@@H](O[C@@H]2O[C@H](CO)[C@H](O)[C@H](O[C@@H](CC3CCCCC3)C(=O)O)[C@H]2NC(C)=O)[C@@H]1O[C@@H]1O[C@@H](C)[C@@H](O)[C@@H](O)[C@@H]1O [Compound 13]
9 | 3 | CC[C@H]1C[C@@H](C(=O)NCCNC(=O)CCOCCOCCC(=O)NCCNC(=O)[C@@H]2C[C@H](CC)[C@@H](O[C@@H]3O[C@@H](C)[C@@H](O)[C@@H](O)[C@@H]3O)[C@H](O[C@@H]3O[C@H](CO)[C@H](O)[C@H](O[C@@H](CC4CCCCC4)C(=O)N4CCC4)[C@H]3NC(C)=O)C2)C[C@@H](O[C@@H]2O[C@H](CO)[C@H](O)[C@H](O[C@@H](CC3CCCCC3)C(=O)N3CCC3)[C@H]2NC(C)=O)[C@@H]1O[C@@H]1O[C@@H](C)[C@@H](O)[C@@H](O)[C@@H]1O [Compound 25]
10 | 3.7 | CC[C@H]1C[C@@H](C(=O)NCCNC(=O)CCOCCOCCOCCOCCOCCOCCOCCOCCOCCOCCOCCOCCOCCOCCOCCOCCOCCOCCOCCOCCOCCOCCOCCOCCOCCC(=O)NCCNC(=O)[C@@H]2C[C@H](CC)[C@@H](O[C@@H]3O[C@@H](C)[C@@H](O)[C@@H](O)[C@@H]3O)[C@H](O[C@@H]3O[C@H](CO)[C@H](O)[C@H](O[C@@H](CC4CCCCC4)C(=O)O)[C@H]3NC(C)=O)C2)C[C@@H](O[C@@H]2O[C@H](CO)[C@H](O)[C@H](O[C@@H](CC3CCCCC3)C(=O)O)[C@H]2NC(C)=O)[C@@H]1O[C@@H]1O[C@@H](C)[C@@H](O)[C@@H](O)[C@@H]1O [Compound 12]
11 | 3.3 | CC[C@H]1C[C@@H](C(=O)NCCNC(=O)Cn2cc(C(=O)NCCNC(=O)[C@@H]3C[C@H](CC)[C@@H](O[C@@H]4O[C@@H](C)[C@@H](O)[C@@H](O)[C@@H]4O)[C@H](O[C@@H]4O[C@H](CO)[C@H](O)[C@H](O[C@@H](CC5CCCCC5)C(=O)O)[C@H]4NC(C)=O)C3)nn2)C[C@@H](O[C@@H]2O[C@H](CO)[C@H](O)[C@H](O[C@@H](CC3CCCCC3)C(=O)O)[C@H]2NC(C)=O)[C@@H]1O[C@@H]1O[C@@H](C)[C@@H](O)[C@@H](O)[C@@H]1O [Compound 31]
12 | 1.5 | CCC1CC(C(=O)NCCNC(=O)CCC(=O)NCCN(CCNC(=O)CCC(=O)NCCNC(=O)C2CC(CC)C(OC3OC(C)C(O)C(O)C3O)C(OC3OC(CO)C(O)C(OC(CC4CCCCC4)C(=O)O)C3NC(C)=O)C2)CCNC(=O)CCC(=O)NCCNC(=O)C2CC(CC)C(OC3OC(C)C(O)C(O)C3O)C(OC3OC(CO)C(O)C(OC(CC4CCCCC4)C(=O)O)C3NC(C)=O)C2)CC(OC2OC(CO)C(O)C(OC(CC3CCCCC3)C(=O)O)C2NC(C)=O)C1OC1OC(C)C(O)C(O)C1O (centres unmarked) [Compound 42]
13 | 3.9 | CCC1CC(C(=O)NCCNC(=O)c2cn(CCOCCC(=O)NCCCC[C@H](NC(=O)CCOCCn3cc(C(=O)NCCNC(=O)C4CC(CC)[C@@H](O[C@@H]5OC(C)[C@@H](O)[C@H](O)C5O)[C@H](O[C@@H]5O[C@@H](CO)[C@H](O)C(O[C@@H](CC6CCCCC6)C(=O)O)C5NC(C)=O)C4)nn3)C(=O)OCc3ccccc3)nn2)C[C@@H](O[C@@H]2O[C@@H](CO)[C@H](O)C(O[C@@H](CC3CCCCC3)C(=O)O)C2NC(C)=O)[C@@H]1O[C@@H]1OC(C)[C@@H](O)[C@H](O)C1O (some centres unmarked) [Compound 37]
14 | 2.8 | CC[C@H]1C[C@@H](C(=O)NCCNC(=O)CCOCCOCCOCCOCCC(=O)NCCNC(=O)[C@@H]2C[C@H](CC)[C@@H](O[C@@H]3O[C@@H](C)[C@@H](O)[C@@H](O)[C@@H]3O)[C@H](O[C@@H]3O[C@H](CO)[C@H](O)[C@H](O[C@@H](CC4CCCCC4)C(=O)N4CCC4)[C@H]3NC(C)=O)C2)C[C@@H](O[C@@H]2O[C@H](CO)[C@H](O)[C@H](O[C@@H](CC3CCCCC3)C(=O)N3CCC3)[C@H]2NC(C)=O)[C@@H]1O[C@@H]1O[C@@H](C)[C@@H](O)[C@@H](O)[C@@H]1O [Compound 23]
15 | 2.4 | CC[C@H]1C[C@@H](C(=O)NCCNC(=O)CCOCCOCCOCCOCCOCCOCCC(=O)NCCNC(=O)[C@@H]2C[C@H](CC)[C@@H](O[C@@H]3O[C@@H](C)[C@@H](O)[C@@H](O)[C@@H]3O)[C@H](O[C@@H]3O[C@H](CO)[C@H](O)[C@H](O[C@@H](CC4CCCCC4)C(=O)N4CCC4)[C@H]3NC(C)=O)C2)C[C@@H](O[C@@H]2O[C@H](CO)[C@H](O)[C@H](O[C@@H](CC3CCCCC3)C(=O)N3CCC3)[C@H]2NC(C)=O)[C@@H]1O[C@@H]1O[C@@H](C)[C@@H](O)[C@@H](O)[C@@H]1O [Compound 24]
16 | 3.2 | CCC1CC(C(=O)NCCNC(=O)c2cn(CCOCCOCCOCCn3cc(C(=O)NCCNC(=O)C4CC(CC)C(OC5OC(C)C(O)C(O)C5O)C(OC5OC(CO)C(O)C(OC(CC6CCCCC6)C(=O)N6CCC6)C5NC(C)=O)C4)nn3)nn2)CC(OC2OC(CO)C(O)C(OC(CC3CCCCC3)C(=O)N3CCC3)C2NC(C)=O)C1OC1OC(C)C(O)C(O)C1O (centres unmarked) [Compound 29]
17 | 3.5 | CC[C@H]1C[C@@H](C(=O)NCCNC(=O)CCOCCOCCC(=O)NCCNC(=O)[C@@H]2C[C@H](CC)[C@@H](O[C@@H]3O[C@@H](C)[C@@H](O)[C@@H](O)[C@@H]3O)[C@H](O[C@@H]3O[C@H](CO)[C@H](O)[C@H](O[C@@H](CC4CCCCC4)C(=O)O)[C@H]3NC(C)=O)C2)C[C@@H](O[C@@H]2O[C@H](CO)[C@H](O)[C@H](O[C@@H](CC3CCCCC3)C(=O)O)[C@H]2NC(C)=O)[C@@H]1O[C@@H]1O[C@@H](C)[C@@H](O)[C@@H](O)[C@@H]1O [Compound 18]
